In ChEMBL document CHEMBL1201862, “PubChem BioAssay data set” (2004) one finds IC50, EC50 and AC50 data, which are given here for four compounds.

Each structure is given as a SMILES string. Active and inactive are the calls of the source. Bounds are passed on as bounds.

Assay [1] concerns the target T1, Sentrin-specific protease 7 (Homo sapiens, UniProt Q9BQF6).
T1 sequence (Q9BQF6 whole entry): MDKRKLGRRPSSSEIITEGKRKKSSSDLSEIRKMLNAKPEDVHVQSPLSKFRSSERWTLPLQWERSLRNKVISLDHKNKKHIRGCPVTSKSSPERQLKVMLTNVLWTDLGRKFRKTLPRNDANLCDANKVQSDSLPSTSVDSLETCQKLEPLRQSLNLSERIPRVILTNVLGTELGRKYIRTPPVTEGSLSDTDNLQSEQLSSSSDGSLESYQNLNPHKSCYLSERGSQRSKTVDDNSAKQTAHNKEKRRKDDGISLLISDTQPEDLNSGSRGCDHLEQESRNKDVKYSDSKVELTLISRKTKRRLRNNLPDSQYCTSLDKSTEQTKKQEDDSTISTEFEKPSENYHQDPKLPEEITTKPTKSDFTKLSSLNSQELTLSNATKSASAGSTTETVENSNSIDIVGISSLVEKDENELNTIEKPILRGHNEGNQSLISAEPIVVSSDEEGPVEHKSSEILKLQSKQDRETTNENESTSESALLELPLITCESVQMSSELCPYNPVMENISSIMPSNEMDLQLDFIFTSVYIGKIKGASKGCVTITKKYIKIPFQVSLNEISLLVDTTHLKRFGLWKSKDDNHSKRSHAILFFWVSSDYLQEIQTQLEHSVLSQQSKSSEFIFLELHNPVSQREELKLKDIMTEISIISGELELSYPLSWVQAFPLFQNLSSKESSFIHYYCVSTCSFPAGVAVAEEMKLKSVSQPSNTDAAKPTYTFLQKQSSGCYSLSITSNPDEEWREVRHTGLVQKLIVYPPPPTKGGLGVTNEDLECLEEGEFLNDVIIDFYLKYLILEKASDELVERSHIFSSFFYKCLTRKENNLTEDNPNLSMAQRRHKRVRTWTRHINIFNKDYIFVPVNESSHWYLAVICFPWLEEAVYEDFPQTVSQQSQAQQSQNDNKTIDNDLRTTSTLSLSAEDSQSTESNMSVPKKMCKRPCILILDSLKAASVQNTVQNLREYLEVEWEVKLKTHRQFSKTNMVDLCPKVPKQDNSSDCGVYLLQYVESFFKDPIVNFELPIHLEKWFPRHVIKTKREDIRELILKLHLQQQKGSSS
The experiment in a line: inhibition of human SENP7 cleavage activity – biochemical, luminescence, SAR follow-up (AID 504497). It is filed as functional.

Assay [2] addresses T2, Sentrin-specific protease 6 (Homo sapiens, UniProt Q9GZR1).
T2 sequence (Q9GZR1 whole entry): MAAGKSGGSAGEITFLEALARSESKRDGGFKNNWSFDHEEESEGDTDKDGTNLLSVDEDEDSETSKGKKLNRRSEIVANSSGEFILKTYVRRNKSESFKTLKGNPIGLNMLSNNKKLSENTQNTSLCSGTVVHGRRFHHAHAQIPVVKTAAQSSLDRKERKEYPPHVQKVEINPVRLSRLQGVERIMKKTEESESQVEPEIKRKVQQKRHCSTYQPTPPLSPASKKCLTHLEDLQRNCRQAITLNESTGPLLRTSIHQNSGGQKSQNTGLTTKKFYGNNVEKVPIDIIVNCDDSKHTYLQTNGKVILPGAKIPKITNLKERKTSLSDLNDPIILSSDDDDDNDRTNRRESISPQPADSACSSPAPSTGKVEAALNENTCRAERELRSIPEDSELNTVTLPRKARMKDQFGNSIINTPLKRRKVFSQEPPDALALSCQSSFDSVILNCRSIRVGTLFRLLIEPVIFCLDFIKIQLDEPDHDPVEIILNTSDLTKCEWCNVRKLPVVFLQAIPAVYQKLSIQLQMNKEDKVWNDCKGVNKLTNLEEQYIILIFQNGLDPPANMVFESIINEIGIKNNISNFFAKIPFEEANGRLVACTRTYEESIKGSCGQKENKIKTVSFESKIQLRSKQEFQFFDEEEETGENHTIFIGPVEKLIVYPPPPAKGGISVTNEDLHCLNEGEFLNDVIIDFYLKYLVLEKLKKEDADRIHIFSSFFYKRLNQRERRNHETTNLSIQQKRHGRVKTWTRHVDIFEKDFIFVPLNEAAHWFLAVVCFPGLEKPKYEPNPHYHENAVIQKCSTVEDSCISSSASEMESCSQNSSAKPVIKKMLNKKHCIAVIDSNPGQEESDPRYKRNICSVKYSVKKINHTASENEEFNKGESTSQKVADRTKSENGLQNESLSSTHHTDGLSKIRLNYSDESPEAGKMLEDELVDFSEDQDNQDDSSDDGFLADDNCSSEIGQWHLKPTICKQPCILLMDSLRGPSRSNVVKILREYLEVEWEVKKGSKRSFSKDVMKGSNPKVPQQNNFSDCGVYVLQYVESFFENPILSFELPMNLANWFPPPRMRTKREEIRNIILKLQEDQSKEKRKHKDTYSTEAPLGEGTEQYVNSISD
Description: SAR Analysis of small molecule inhibitors of Sentrin-specific protease 6 (SENP6) using a Luminescent assay. [Related pubchem assays (depositor defined):AID2582, AID2599]. It counts as functional.

Assay [3] has as its target T3, Caspase-3 (Homo sapiens, UniProt P42574).
T3 sequence (P42574 whole entry): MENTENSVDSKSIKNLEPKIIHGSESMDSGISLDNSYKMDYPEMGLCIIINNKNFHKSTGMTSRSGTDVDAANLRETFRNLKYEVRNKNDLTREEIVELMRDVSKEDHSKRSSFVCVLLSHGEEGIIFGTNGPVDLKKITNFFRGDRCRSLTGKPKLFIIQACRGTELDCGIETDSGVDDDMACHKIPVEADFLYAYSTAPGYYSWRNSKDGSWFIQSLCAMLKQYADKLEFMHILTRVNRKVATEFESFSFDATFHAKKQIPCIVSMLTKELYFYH
The experiment in a line: SAR Analysis of small molecule inhibitors of Sentrin-specific proteases (SENPs) using a Caspase-3 Selectivity assay. [Related pubchem assays (depositor defined):AID2540, AID2599, AID434973, AID489001]. It counts as functional.

Assay [4] addresses T4, Sentrin-specific protease 8 (Homo sapiens, UniProt Q96LD8).
T4 sequence (Q96LD8 whole entry): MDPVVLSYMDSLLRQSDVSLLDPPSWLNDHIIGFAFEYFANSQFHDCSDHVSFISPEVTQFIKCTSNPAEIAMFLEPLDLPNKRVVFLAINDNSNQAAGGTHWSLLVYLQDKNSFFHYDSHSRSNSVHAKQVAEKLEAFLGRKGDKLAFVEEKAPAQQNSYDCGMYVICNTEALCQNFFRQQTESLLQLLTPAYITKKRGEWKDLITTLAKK
The experiment in a line: inhibition of human SENP8 cleavage activity – biochemical, luminescence, SAR follow-up (AID 504501). It is filed as functional.

The target of assay [5] is T5, Zinc finger protein mex-5 (Caenorhabditis elegans, UniProt Q9XUB2).
T5 sequence (Q9XUB2 whole entry): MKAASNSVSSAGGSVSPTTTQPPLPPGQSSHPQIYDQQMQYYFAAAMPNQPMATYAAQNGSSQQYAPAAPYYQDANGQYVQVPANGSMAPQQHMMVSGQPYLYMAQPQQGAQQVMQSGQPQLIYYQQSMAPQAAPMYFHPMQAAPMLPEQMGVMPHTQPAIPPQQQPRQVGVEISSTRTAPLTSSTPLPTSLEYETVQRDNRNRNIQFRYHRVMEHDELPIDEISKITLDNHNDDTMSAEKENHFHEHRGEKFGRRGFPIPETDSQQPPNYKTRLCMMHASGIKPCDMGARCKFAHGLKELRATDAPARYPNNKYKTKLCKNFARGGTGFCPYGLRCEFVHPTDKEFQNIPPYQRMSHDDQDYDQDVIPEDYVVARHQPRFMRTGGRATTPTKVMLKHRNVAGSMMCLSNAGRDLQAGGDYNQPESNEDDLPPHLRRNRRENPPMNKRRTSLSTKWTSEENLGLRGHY
The experiment in a line: potency of MEX-5 RNA-binding blockers – biochemical, C. elegans, fluorescence polarization, dose response (AID 1960). A general note: In fluorescence polarisation assays a small probe gives low polarisation when free and higher when bound to something large.

Assay [6] concerns the target T6, Endoribonuclease toxin MazF (Escherichia coli K-12, UniProt P0AE70).
T6 sequence (P0AE70 whole entry): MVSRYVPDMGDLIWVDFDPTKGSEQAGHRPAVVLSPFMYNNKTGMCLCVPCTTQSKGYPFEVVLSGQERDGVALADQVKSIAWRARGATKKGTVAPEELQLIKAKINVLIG
The experiment in a line: activation of MazEF endoribonuclease cleavage – biochemical, fluorescence, single-stranded RNA substrate, uHTS hits, dose response (AID 588481). It counts as functional.

In assay [7] the target is T6, Endoribonuclease toxin MazF. The experiment in a line: substrate-only fluorescence increase artefacts – biochemical, single-stranded RNase substrate, counter-screen for MazEF activator project, dose response (AID 588502). It counts as functional. A general note: A counterscreen serves to expose hits that act by an unwanted route or on another target.
Assay [8] addresses T7, RNA-binding protein pos-1 (Caenorhabditis elegans, UniProt G5EF15).
T7 sequence (G5EF15 whole entry): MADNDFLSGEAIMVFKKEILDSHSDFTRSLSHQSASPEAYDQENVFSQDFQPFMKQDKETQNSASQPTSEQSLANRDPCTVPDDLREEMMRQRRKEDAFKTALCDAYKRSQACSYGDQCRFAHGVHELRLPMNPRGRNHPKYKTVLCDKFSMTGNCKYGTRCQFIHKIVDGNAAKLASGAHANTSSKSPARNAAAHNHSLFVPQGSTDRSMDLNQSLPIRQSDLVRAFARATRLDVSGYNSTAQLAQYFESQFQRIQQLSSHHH
Description: disruptors of C. elegans POS-1 RNA interaction – biochemical, fluorescence polarization, dose response (AID 1964).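 Further: purified POS-1 fused to maltose binding protein made in E. coli; potency of compounds blocking POS-1 binding to fluorescent RNA.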

Assay [9] deals with T8, Nuclear receptor subfamily 0 group B member 1 (Homo sapiens, UniProt P51843).
T8 sequence (P51843 whole entry): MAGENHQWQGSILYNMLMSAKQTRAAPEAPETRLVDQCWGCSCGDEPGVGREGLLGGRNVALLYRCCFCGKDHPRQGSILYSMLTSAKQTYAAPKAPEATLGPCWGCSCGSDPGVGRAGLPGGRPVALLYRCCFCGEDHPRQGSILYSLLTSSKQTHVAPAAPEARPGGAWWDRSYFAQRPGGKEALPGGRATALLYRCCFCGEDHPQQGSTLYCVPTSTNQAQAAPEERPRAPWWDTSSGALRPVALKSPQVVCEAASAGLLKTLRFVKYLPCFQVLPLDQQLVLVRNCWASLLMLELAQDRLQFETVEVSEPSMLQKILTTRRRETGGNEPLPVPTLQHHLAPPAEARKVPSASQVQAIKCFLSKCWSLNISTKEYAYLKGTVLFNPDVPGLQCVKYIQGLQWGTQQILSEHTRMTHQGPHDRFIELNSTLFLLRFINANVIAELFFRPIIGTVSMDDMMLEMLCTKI
The experiment in a line: Luminescence-based cell-based high throughput dose response assay for inhibitors of the orphan nuclear receptor subfamily 0, group B, member 1 (DAX1; NR0B1). [Related pubchem assays (depositor defined):AID504766, AID504790]. It is filed as functional.

Assay [10] deals with HEK293. The experiment in a line: cells. It counts as functional, cell-based. The settings on record: Homo sapiens.
The subject of assay [11] is HeLa. The experiment in a line: ATP-based viability loss in HeLa cells – cell-based, CellTiter-Glo luminescence, cherry-pick samples, cytotoxicity control for MITF activator project, dose response (AID 540259). It is filed as functional. To be noted: Homo sapiens.
In assay [12] the target is T9, Protein skinhead-1 (Caenorhabditis elegans, UniProt P34707).
T9 sequence (P34707 whole entry): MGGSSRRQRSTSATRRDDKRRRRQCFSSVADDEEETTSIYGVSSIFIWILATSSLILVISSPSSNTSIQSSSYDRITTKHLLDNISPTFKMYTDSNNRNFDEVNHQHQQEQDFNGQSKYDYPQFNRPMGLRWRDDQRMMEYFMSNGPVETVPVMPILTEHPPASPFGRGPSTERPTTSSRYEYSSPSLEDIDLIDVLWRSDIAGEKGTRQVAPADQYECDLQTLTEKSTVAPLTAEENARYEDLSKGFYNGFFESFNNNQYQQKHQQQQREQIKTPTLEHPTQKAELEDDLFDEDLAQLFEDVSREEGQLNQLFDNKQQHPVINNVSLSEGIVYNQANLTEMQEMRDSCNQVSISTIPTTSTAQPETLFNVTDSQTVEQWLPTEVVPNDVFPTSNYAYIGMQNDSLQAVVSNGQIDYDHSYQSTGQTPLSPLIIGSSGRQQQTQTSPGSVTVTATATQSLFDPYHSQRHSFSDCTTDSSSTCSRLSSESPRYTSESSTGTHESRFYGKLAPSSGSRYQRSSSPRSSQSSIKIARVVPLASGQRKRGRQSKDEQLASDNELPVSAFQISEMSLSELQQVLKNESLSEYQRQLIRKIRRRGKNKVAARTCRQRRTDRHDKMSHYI
It counts as functional.

By IC50 is commonly meant the concentration at which inhibition is half-maximal. Regarding `CCCc1ccc(OCc2ccc(C(=O)Nc3ccccc3F)cc2)cc1`, the IC50 in assay [1] was 85.3 µM (active); in assay [2] it was 43.7 µM (active); in assay [3], > 99 µM (inactive); in assay [4] it was 70.3 µM (active).

As for `FC(F)(F)c1ccc(N/N=C/c2cn(Cc3ccccc3)c3ccccc23)cc1`, the IC50 in assay [1], in assay [2], in [3] and in assay [4] was > 99 µM (inactive) each time.

The term EC50 denotes the concentration giving half of the maximal effect. In the case of `O=[N+]([O-])c1cccc(/C=C/c2nc(/C=N/c3ccccc3)c(O)o2)c1`, the EC50 in [5] was 39.4 µM (active); in assay [6], > 99 µM (inactive); in assay [7], 19.2 µM (active); in [8] it was > 300 µM (not active).

The AC50 is the midpoint of the concentration-response curve, whichever way the signal moves. Turning to `Clc1ccc(OCc2noc(-c3ccsc3)n2)c(Cl)c1`, the IC50 was > 67.5 µM (inactive) in [9], > 67.5 µM (inactive) in assay [10] and > 100 µM (inactive) in [12]. For the same compound, the AC50 in assay [11] is 111 µM (active).
